Here are results for two substances from PMC3348578 (2009).

The test system of data set [1] is FAP (purified recombinant FAP; His-tagged FAP lacking the transmembrane domain). The data set can be described thus: purified FAP in FAP assay buffer containing 100 mmol/L Tris, 100 mmol/L NaCl. Particulars: 37°C, up to 8 h.
The test system of the next data set is DPP4-like protease. The data set can be described thus: honeybee venom gland extracts. Particulars: cited from earlier work.

For NH2-GIGAVLKVLTTGLPALISWIKRKRQQ-NH2, the not cleaved entry in data set [1] is “not cleaved by FAP”.

For “APEPEPAPEPEAEADAEADPEAGIGAVLKVLTTGLPALISWIKRKRQQ-NH2”, the fragment found in the data set on DPP4-like protease was 11 dipeptide fragments.
